Measurements taken from article PMC10613967, “The anti-cancer efficacy of a novel phenothiazine derivative is independent of dopamine and serotonin receptor inhibition” (Frontiers in Oncology, 2023).
Counter-ions that a name gives are not always drawn. Like-named read-outs stand apart in the source and are kept apart here.

Assays:
A375 cells [1] = experiment: Cell viability assay (Cell-Titer-Blue); assay type: cell-based, human
Description: (§1) Cells were seeded in 96-well plates at a suitable cell density for the growth rates of individual cell lines and the incubation time of the assay. […] Cell viability was determined using Cell-Titer-Blue assay (Promega) according to manufacturer’s instructions. The Synergy HT plate reader (Biotek, Winooski, VT) was used for signal quantification and the fluorescence values were normalized to the vehicle well for each cell line. Absolute IC50 and Growth rate inhibition GR50 ([27]) were calculated with GraphPadPrism software (GraphPad Software, Inc.).

A375 cells [2] = experiment: Cell cycle analysis (PI staining, flow cytometry); assay type: cell-based, human; settings: 24h
Description: (§2) A375 cells were seeded at 250,000 cells/well in 6-well plates and left to attach overnight. […] For cell cycle analysis, cells were detached with trypsin, fixed in ethanol 70%, treated with RNase A, mixed with propidium iodide, and processed with the Becton Dickinson LSR II flow cytometer. Analysis was performed with ModFit LT software. […] Samples were processed with the Becton Dickinson LSR II flow cytometer, and the analysis was performed with FlowJo software. Annexin V positive and PI negative cells were counted as apoptotic cells.

A375 cells [3] = experiment: Immunofluorescence (α-tubulin, pericentrin, DNA); assay type: cell-based, human; settings: 20µM, 24h
Description: At the end of the incubation, cells were fixed in 4% PFA, permeabilized in PBS-0.2% Triton X100, and blocked in PBS-2.5% BSA before antibody incubation. Cells were incubated with anti-Tubulin and anti-Pericentrin antibodies overnight at 4°C, and then with secondary antibodies for 1 h at room temperature ( Table 1 ). All antibodies were diluted in PBS-2.5% BSA. The coverslips were then mounted on cover glass with a DAPI (4’,6-diamidino-2-phenylindole)-containing mounting media (Invitrogen P36962, Waltham, MA), and imaged with a Leica SP8 confocal microscope.

A375 cells [4] = experiment: Apoptosis assay (Annexin V staining, flow cytometry); assay type: cell-based, human; settings: 24h exposure
Description: as §2

[5] = system: variety of cancer cell types; settings: in vitro; read-out: IC50, cytotoxicity; cited from earlier work
MDA-MB-231 = experiment: Cell viability assay (Cell-Titer-Blue); assay type: cell-based, human; settings: 72h; read-out: Calculated IC50
Description: as §1

HCC1806 = experiment: Cell viability assay (Cell-Titer-Blue); assay type: cell-based, human; settings: 72h; read-out: Calculated IC50
Description: (§3) All cell lines were grown at 37°C in a 5% CO2 atmosphere in the ATCC-specified medium containing 10% FBS and 1% NEAA ( Table 1 ).
as §1

ZR-75-1 = experiment: Cell viability assay (Cell-Titer-Blue); assay type: cell-based, human; settings: 72h; read-out: Calculated IC50
Description: as §3, §1

PC-3 = experiment: Cell viability assay (Cell-Titer-Blue); assay type: cell-based, human; settings: 72h; read-out: Calculated IC50
Description: as §3, §1

LNCaP = experiment: Cell viability assay (Cell-Titer-Blue); assay type: cell-based, human; settings: 72h; read-out: Calculated IC50
Description: as §3, §1

DU145 = experiment: Cell viability assay (Cell-Titer-Blue); assay type: cell-based, human; settings: 72h; read-out: Calculated IC50
Description: as §3, §1

22Rv1 = experiment: Cell viability assay (Cell-Titer-Blue); assay type: cell-based, human; settings: 72h; read-out: Calculated IC50
Description: as §1

HT29 = experiment: Cell viability assay (Cell-Titer-Blue); assay type: cell-based, human; settings: 72h; read-out: Calculated IC50
Description: as §1

HCT116 = experiment: Cell viability assay (Cell-Titer-Blue); assay type: cell-based, human; settings: 72h; read-out: Calculated IC50
Description: as §1

PANC1 = experiment: Cell viability assay (Cell-Titer-Blue); assay type: cell-based, human; settings: 72h; read-out: Calculated IC50
Description: as §1

BxPC3 = experiment: Cell viability assay (Cell-Titer-Blue); assay type: cell-based, human; settings: 72h; read-out: Calculated IC50
Description: as §1

A498 = experiment: Cell viability assay (Cell-Titer-Blue); assay type: cell-based, human; settings: 72h; read-out: Calculated IC50
Description: as §3, §1

786-O = experiment: Cell viability assay (Cell-Titer-Blue); assay type: cell-based, human; settings: 72h; read-out: Calculated IC50
Description: as §3, §1

HepG2 = experiment: Cell viability assay (Cell-Titer-Blue); assay type: cell-based, human; settings: 72h; read-out: Calculated IC50
Description: as §3, §1

TCCSUP = experiment: Cell viability assay (Cell-Titer-Blue); assay type: cell-based, human; settings: 72h; read-out: Calculated IC50
Description: as §3, §1

RT4 = experiment: Cell viability assay (Cell-Titer-Blue); assay type: cell-based, human; settings: 72h; read-out: Calculated IC50
Description: as §3, §1

U87 = experiment: Cell viability assay (Cell-Titer-Blue); assay type: cell-based, human; settings: 72h; read-out: Calculated IC50
Description: as §1

U251 = experiment: Cell viability assay (Cell-Titer-Blue); assay type: cell-based, human; settings: 72h; read-out: Calculated IC50
Description: as §1

SKMEL28 = experiment: Cell viability assay (Cell-Titer-Blue); assay type: cell-based, human; settings: 72h; read-out: Calculated IC50
Description: as §1

RPMI7951 = experiment: Cell viability assay (Cell-Titer-Blue); assay type: cell-based, human; settings: 72h; read-out: Calculated IC50
Description: as §1

Hs852T = experiment: Cell viability assay (Cell-Titer-Blue); assay type: cell-based, human; settings: 72h; read-out: Calculated IC50
Description: as §3, §1

A101D = experiment: Cell viability assay (Cell-Titer-Blue); assay type: cell-based, human; settings: 72h; read-out: Calculated IC50
Description: as §3, §1

WM-266-4 = experiment: Cell viability assay (Cell-Titer-Blue); assay type: cell-based, human; settings: 72h; read-out: Calculated IC50
Description: as §3, §1

A2058 = experiment: Cell viability assay (Cell-Titer-Blue); assay type: cell-based, human; settings: 72h; read-out: Calculated IC50
Description: as §3, §1

[6] = system: panel of cancer cell lines; experiment: Cell viability assay across the panel of cell lines; assay type: cell-based, human; settings: 72h of drug exposure; read-out: Absolute IC50, range across the panel
Description: as §3, §1

Compound: CN(C)CCCN1c2ccccc2Sc2ccc(Cl)cc21 [Chlorpromazine, chlorpromazine hydrochloride]
- IC50 (A375 cells [1]; Homo sapiens, A-375, 24h treatment, read-out: IC50, cell viability): 13.6 µM
- cells in the G2/M phase (A375 cells [2]; 20µM): 69.8%
- cell cycle arrest (in words) (A375 cells [2]): induces a cell cycle arrest in G2/M
- mitotic phenotype by immunofluorescence (A375 cells [3]): cells often appeared binucleated

Compound: OCCN1CCN(CCCN2c3ccccc3Sc3ccc(C(F)(F)F)cc32)CC1 [Fluphenazine, fluphenazine hydrochloride]
- concentrations inducing apoptosis (annexin V staining) (A375 cells [4]): ≥ 20 µM
- concentrations inducing G0/G1 cell cycle arrest (A375 cells [2]): ≥ 10 µM
- mitotic phenotype by immunofluorescence (A375 cells [3]): dramatic decrease in the number of cells in mitosis
- IC50 [5]: 5 to 20 µM

Compound: Cl.NCCCCCCNS(=O)(=O)c1cccc2c(Cl)cccc12 [W-7, W-7 hydrochloride]
- IC50 (MDA-MB-231): 34.6 µM
- IC50 (HCC1806): 26.9 µM
- IC50 (ZR-75-1): 25.2 µM
- IC50 (PC-3): 40.8 µM
- IC50 (LNCaP): 36.6 µM
- IC50 (DU145): 37.3 µM
- IC50 (22Rv1): 39.1 µM
- IC50 (HT29): 26.4 µM
- IC50 (HCT116): 27.9 µM
- IC50 (PANC1): 32.7 µM
- IC50 (BxPC3): 38.1 µM
- IC50 (A498): 28 µM
- IC50 (786-O): 33.5 µM
- IC50 (HepG2): 26.8 µM
- IC50 (TCCSUP): 25.9 µM
- IC50 (RT4): 45.2 µM
- IC50 (U87): 56.8 µM
- IC50 (U251): 30 µM
- IC50 (A375 cells [1]; 72h, read-out: Calculated IC50): 21.8 µM
- IC50 (SKMEL28): 29.3 µM
- IC50 (RPMI7951): 26.5 µM
- IC50 (Hs852T): 24.5 µM
- IC50 (A101D): 26.9 µM
- IC50 (WM-266-4): 28.2 µM
- IC50 (A2058): 24.3 µM
- IC50 [6]: 21.8 to 56.8 µM
- cell cycle arrest (in words) (A375 cells [2]): did not induce a cell cycle arrest
